Measurements from PubChem BioAssay (NCI).
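How tested: cells in 96-well plates exposed to compound for 48 hours at five concentrations. Abbreviation: GI50, concentration required for 50% inhibition of growth. TGI: concentration producing complete growth inhibition.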

Tests used:
Assay in all cases: NCI anticancer screen, dose series, 48 h
T-47D breast = system: T-47D breast
SW-620 colon = system: SW-620 colon
TK-10 renal = system: TK-10 renal
RPMI-8226 leukemia = system: RPMI-8226 leukemia
CCRF-CEM leukemia = system: CCRF-CEM leukemia
MDA-MB-435 = system: MDA-MB-435
NCI-H226 lung = system: NCI-H226 lung
OVCAR-5 ovarian = system: OVCAR-5 ovarian
HL-60(TB) leukemia = system: HL-60(TB) leukemia
SK-MEL-28 melanoma = system: SK-MEL-28 melanoma
CAKI-1 renal = system: CAKI-1 renal
SNB-19 CNS = system: SNB-19 CNS
SN12C renal = system: SN12C renal
NCI-H522 lung = system: NCI-H522 lung
786-0 renal = system: 786-0 renal
M14 melanoma = system: M14 melanoma
SF-295 CNS = system: SF-295 CNS
HCT-15 colon = system: HCT-15 colon
SF-539 CNS = system: SF-539 CNS
COLO 205 colon = system: COLO 205 colon
MCF7 breast = system: MCF7 breast
HCT-116 colon = system: HCT-116 colon
BT-549 breast = system: BT-549 breast
ACHN renal = system: ACHN renal
HT29 colon = system: HT29 colon
DU-145 prostate = system: DU-145 prostate
NCI-H23 lung = system: NCI-H23 lung
HOP-62 NSCLC = system: HOP-62 NSCLC
UO-31 renal = system: UO-31 renal
MALME-3M melanoma = system: MALME-3M melanoma
SK-MEL-5 melanoma = system: SK-MEL-5 melanoma
HOP-92 NSCLC = system: HOP-92 NSCLC
IGROV1 ovarian = system: IGROV1 ovarian
KM12 colon = system: KM12 colon
MDA-MB-231 breast = system: MDA-MB-231 breast
SK-OV-3 ovarian = system: SK-OV-3 ovarian
MOLT-4 leukemia = system: MOLT-4 leukemia
PC-3 prostate = system: PC-3 prostate
EKVX NSCLC = system: EKVX NSCLC
SK-MEL-2 melanoma = system: SK-MEL-2 melanoma
OVCAR-8 ovarian = system: OVCAR-8 ovarian
HCC-2998 colon = system: HCC-2998 colon
OVCAR-3 ovarian = system: OVCAR-3 ovarian
OVCAR-4 ovarian = system: OVCAR-4 ovarian
UACC-62 melanoma = system: UACC-62 melanoma
A498 renal = system: A498 renal
SNB-75 CNS = system: SNB-75 CNS
LOX IMVI melanoma = system: LOX IMVI melanoma
NCI-H460 lung = system: NCI-H460 lung
A549 NSCLC = system: A549 NSCLC
HS 578T breast = system: HS 578T breast
K-562 leukemia = system: K-562 leukemia
NCI/ADR-RES ovarian = system: NCI/ADR-RES ovarian
RXF 393 renal = system: RXF 393 renal
SF-268 CNS = system: SF-268 CNS
U251 CNS = system: U251 CNS

**Q.** Which results are given for CCNc1nc(N2CC(=O)Nc3cc(OC)ccc32)c2ccccc2n1?
**A.** GI50 (T-47D breast): 253 nM; TGI (T-47D breast): 52900 nM; GI50 (SW-620 colon): 0.378 nM; TGI (SW-620 colon): > 100000 nM; GI50 (TK-10 renal): 82.2 nM; TGI (TK-10 renal): > 100000 nM; GI50 (RPMI-8226 leukemia): 0.471 nM; TGI (RPMI-8226 leukemia): 24300 nM; GI50 (CCRF-CEM leukemia): 0.404 nM; TGI (CCRF-CEM leukemia): > 100000 nM; GI50 (MDA-MB-435): 0.193 nM; TGI (MDA-MB-435): 0.442 nM; TGI (NCI-H226 lung): > 100000 nM; GI50 (OVCAR-5 ovarian): 10.7 nM; TGI (OVCAR-5 ovarian): > 100000 nM; GI50 (HL-60(TB) leukemia): 0.235 nM; TGI (HL-60(TB) leukemia): 0.581 nM; GI50 (SK-MEL-28 melanoma): 1700 nM; TGI (SK-MEL-28 melanoma): > 100000 nM; GI50 (CAKI-1 renal): 2.2 nM; TGI (CAKI-1 renal): > 100000 nM; GI50 (SNB-19 CNS): 0.67 nM; TGI (SNB-19 CNS): > 100000 nM; GI50 (SN12C renal): 1.37 nM; TGI (SN12C renal): > 100000 nM; GI50 (NCI-H522 lung): 0.51 nM; TGI (NCI-H522 lung): 7.83 nM; GI50 (786-0 renal): 9.94 nM; TGI (786-0 renal): > 100000 nM; GI50 (M14 melanoma): 0.363 nM; TGI (M14 melanoma): > 100000 nM; GI50 (SF-295 CNS): 1.29 nM; TGI (SF-295 CNS): 6.14 nM; GI50 (HCT-15 colon): 0.609 nM; TGI (HCT-15 colon): > 100000 nM; GI50 (SF-539 CNS): 1.1 nM; TGI (SF-539 CNS): 6.55 nM; GI50 (COLO 205 colon): 0.35 nM; TGI (COLO 205 colon): 2.07 nM; GI50 (MCF7 breast): 0.369 nM; TGI (MCF7 breast): > 100000 nM; GI50 (HCT-116 colon): 0.361 nM; TGI (HCT-116 colon): > 100000 nM; GI50 (BT-549 breast): 2.37 nM; TGI (BT-549 breast): 3910 nM; GI50 (ACHN renal): 1.39 nM; TGI (ACHN renal): > 100000 nM; GI50 (HT29 colon): 0.334 nM; TGI (HT29 colon): 10 nM; GI50 (DU-145 prostate): 0.435 nM; TGI (DU-145 prostate): 12100 nM; GI50 (NCI-H23 lung): 0.554 nM; TGI (NCI-H23 lung): > 100000 nM; GI50 (HOP-62 NSCLC): 2.27 nM; TGI (HOP-62 NSCLC): 14200 nM; TGI (UO-31 renal): > 100000 nM; GI50 (MALME-3M melanoma): 7570 nM; TGI (MALME-3M melanoma): > 100000 nM; GI50 (SK-MEL-5 melanoma): 0.456 nM; TGI (SK-MEL-5 melanoma): 3.37 nM; GI50 (HOP-92 NSCLC): 1260 nM; TGI (HOP-92 NSCLC): 9690 nM; GI50 (IGROV1 ovarian): 1.84 nM; TGI (IGROV1 ovarian): 14100 nM; GI50 (KM12 colon): 0.404 nM; TGI (KM12 colon): > 100000 nM; GI50 (MDA-MB-231 breast): 0.553 nM; TGI (MDA-MB-231 breast): > 100000 nM; GI50 (SK-OV-3 ovarian): 0.483 nM; TGI (SK-OV-3 ovarian): 13.4 nM; GI50 (MOLT-4 leukemia): 0.472 nM; TGI (MOLT-4 leukemia): > 100000 nM; GI50 (PC-3 prostate): 0.58 nM; TGI (PC-3 prostate): > 100000 nM; TGI (EKVX NSCLC): > 100000 nM; TGI (SK-MEL-2 melanoma): 42700 nM; GI50 (OVCAR-8 ovarian): 0.945 nM; TGI (OVCAR-8 ovarian): > 100000 nM; GI50 (HCC-2998 colon): 0.614 nM; GI50 (OVCAR-3 ovarian): 0.352 nM; TGI (OVCAR-4 ovarian): > 100000 nM; GI50 (UACC-62 melanoma): 0.54 nM; TGI (UACC-62 melanoma): > 100000 nM; GI50 (A498 renal): 1.51 nM; GI50 (SNB-75 CNS): 0.433 nM; TGI (SNB-75 CNS): > 100000 nM; GI50 (LOX IMVI melanoma): 0.693 nM; TGI (LOX IMVI melanoma): > 100000 nM; GI50 (NCI-H460 lung): 0.365 nM; TGI (NCI-H460 lung): > 100000 nM; GI50 (A549 NSCLC): 0.737 nM; TGI (A549 NSCLC): > 100000 nM; GI50 (HS 578T breast): 1.64 nM; TGI (HS 578T breast): 47800 nM; GI50 (K-562 leukemia): 0.351 nM; TGI (K-562 leukemia): > 100000 nM; GI50 (NCI/ADR-RES ovarian): 0.399 nM; TGI (NCI/ADR-RES ovarian): 15 nM; GI50 (RXF 393 renal): 1 nM; GI50 (SF-268 CNS): 1.39 nM; TGI (SF-268 CNS): > 100000 nM; GI50 (U251 CNS): 0.437 nM; TGI (U251 CNS): > 100000 nM
